{"source": "patent US20030073730A1", "about": "“Use of amino-isoxazolidone compounds for treatment of memory impairment following traumatic brain injury” (G.D. Searle & Co., priority 1994, published 2003)", "key": {"[1]": {"target": "T1, NMDA receptor complex, [3H]TCP binding to synaptic plasma membranes (Rattus norvegicus, UniProt P35439)", "T1 construct": "Triton X-100 washed synaptic plasma membranes (SPM) prepared from rat forebrain; from tissue; host or cells: rat forebrain synaptic plasma membranes (male Sprague-Dawley, 30-45 days old), Triton X-100 washed", "assay": "Assay B: TCP Modulation Assay (stimulation of [3H]TCP binding)", "details": "for effect on glycine dose-response of [3H]TCP binding: D-cycloserine 0-100 μM", "protocol": "[^3H]TCP binding was performed using Triton X-100 washed synaptic plasma membranes (SPM) prepared from rat forebrain (30-45 day old, male SpragueDawley; Sasco, St. Charles, Mo.) as described previously [J. W. Thomas, W. F. Hood, J. B. Monahan, P. C. Contreras and T. L. O'Donohue, Brain Res., 442, 396-398 (1988)]. […] The samples were then filtered through glass fiber filters (Schleicher and Schuell #32) which were pretreated with 0.05% (v/v) polyethylenimine. The filters were washed and the radioactivity quantitated by liquid scintillation spectrometry. […] The EC50 values for the stimulation of [^3H]TCP binding were determined using a four parameter logistic regression analysis."}, "elderly population": {"tested_on": "elderly population", "details": "absence of scopolamine, single oral doses of 5 and 15 mg; cited from earlier work"}, "[2]": {"tested_on": "mentally disturbed patients", "details": "500 mg per day; cited from earlier work"}, "[3]": {"tested_on": "patients with post-traumatic memory impairment", "assay": "Assay C: Post-Traumatic Memory Impairment Study (WMS and MAS)", "format": "in vivo, human", "set-up": "MAS Visual Memory score, least-square mean corrected for baseline / MAS Visual Memory, mean change from baseline / WMS Logical Memory score, mean / WMS Visual Reproduction score, mean / MAS Visual Memory score, mean / MAS Short Term Memory score, mean / MAS Verbal Memory score, mean: scale not given here", "protocol": "The primary objective of this pilot study was to assess in patients with post-traumatic memory impairment: 1) The effect of a single 15 mg dose of cycloserine using the Wechsler Memory Scale (WMS) [D. Wechsler, Wechsler Memory Scale, Manual., Psychological Corporation, New York (1945)]; and 2) The effect of 5 multiple doses of 15 mg of cycloserine over 72 hours using the Memory Assessment Scales (MAS) [J. M Williams, The Memory Assessment Scales., Pyschological Assessment Resources, Odessa, Fla. (1991)]. The secondary objective of this study was to evaluate the safety of cycloserine in patients with traumatic brain injury.\nThe study was conducted by six investigators at six investigational sites in the United States. This was a multicenter, randomized, doubleblind, parallel group, placebo-controlled study in headtrauma patients who were experiencing significant memory disorder. Patients were randomized to receive placebo or 15 mg doses of cycloserine for a total of five equally spaced doses (morning and evening) over a 72-hour period. Safety and efficacy measurements were obtained at the screening and on Days 1 through 4 of the study. A sufficient number of patients were enrolled in the study to assure that 60 evaluable patients (30 in the cycloserine treatment group and 30 in the placebo treatment group) would complete the study.\nPatients considered for enrollment were to have sustained closed head injury (ICD-9-CM#800) and post-traumatic memory impairment established by clinical examination supported by the Hahnemann Orientation and Memory Examination (HOME) [J. M. Williams, In: C. J. Long, L. Ross and M. Mutchnick, eds. Traumatic Brain Injury, Plenum, N.Y. (1990)]. The Anterograde Amnesia score was to be between 0 and 21 inclusive and the patient was to have sufficient cognitive recovery to complete the Hahnemann Memory Screening Test (MST) with a score of at least 9 [J. M. Williams, Ibid.]. Patients were to be at least 18 years of age, weighing between 40 and 100 kg, and female patients could not be at risk of pregnancy. Patients were to have a stable medical condition following the traumatic injury and be judged by the investigator to have adequate nutritional status. [Patients could have other traumatic injuries provided they were under treatment and there was no clinically significant infection or general sepsis.]\nCriteria for exclusion from the study included current or history of significant systemic disorder, brain disorder, or any neurological disorder with cognitive implications other than traumatic brain injury (e.g., brain tumor). Also excluded were patients with current or history of diagnosed epilepsy or documented convulsions, or clinically significant abnormalities of thyroid function, folic acid or B12. Clinically significant cardiovascular, renal, pulmonary, hepatic, gastrointestinal, infectious or hematological illness could preclude patient participation in the study (judgment of the Investigator). Concomitant medication, or medication given within seven days prior to the start of the study could preclude patient participation in the study (judgment of the Investigator and/or Clinical Monitor). Inability to follow study procedures, poor comprehension of study language, uncorrectable loss of hearing or eyesight which would interfere with study participation excluded patients from the study. Patients who had received an acridine derivative within 90 days prior to enrollment or another investigational drug within 30 days enrollment or who were known to have a hypersensitivity to cycloserine or related compounds were also excluded. This study also excluded patients taking or expected to take Hydergine, cerebral vasodilators, nootropics, choline, lecithin or amino acids. Clinically significant laboratory values outside the normal range or previous admission to the study excluded patients from participation in the study.\nAll study medication was provided by G. D. Searle & Co., Skokie, Ill. […]"}, "[4]": {"tested_on": "normal young and elderly human volunteers", "details": "single oral doses of 5 and 15 mg; cited from earlier work"}}}
{"smiles": "c1csc(C2(N3CCCCC3)CCCCC2)c1", "note": "[[^3H]TCP]", "values": [{"measurement": "Kd", "setting": "[1]; basal conditions", "value": 44, "unit": "nM"}]}
{"smiles": "NC1CONC1=O", "note": "(single isomer, unassigned) [D-cycloserine, 4-amino-3-isoxazolidone]", "values": [{"measurement": "effect on cognitive parameters", "setting": "elderly population", "value": "significant positive effects on the cognitive parameters"}, {"measurement": "clinical response in mental disorders", "setting": "[2]", "value": "improvements in depression, insomnia, anexoria or tension were found for some patients"}, {"measurement": "effect on glycine dose-response of [3H]TCP binding", "setting": "[1]; glycine concentrations 0.1-15 μM", "value": "rightward shift in the dose-response curve"}, {"measurement": "effect on glycine dose-response of [3H]TCP binding", "setting": "[1]; glycine concentrations below 0.1 μM", "value": "potentiated the glycine stimulation"}, {"measurement": "effect on glycine stimulation of [3H]TCP binding", "setting": "[1]; in the presence of glycine 0.1-0.6 μM", "value": "reduces the maximal level of glycine stimulation"}, {"measurement": "MAS Short Term Memory score, mean", "setting": "[3]; Baseline", "value": 81.7}, {"measurement": "MAS Verbal Memory score, mean", "setting": "[3]; Baseline", "value": 78.2}, {"measurement": "MAS Visual Memory score, mean", "setting": "[3]; Baseline", "value": 77.2}, {"measurement": "WMS Logical Memory score, mean", "setting": "[3]; Baseline, prior to first dose", "value": 8.88}, {"measurement": "WMS Visual Reproduction score, mean", "setting": "[3]; Baseline, prior to first dose", "value": 8.70}, {"measurement": "WMS Logical Memory score, mean", "setting": "[3]; Day 2, after one 15 mg dose", "value": 8.24}, {"measurement": "WMS Visual Reproduction score, mean", "setting": "[3]; Day 2, after one 15 mg dose", "value": 8.42}, {"measurement": "WMS Visual Reproduction score corrected for baseline versus placebo", "setting": "[3]; Day 2, one dose, p=0.59", "value": "did not differ significantly"}, {"measurement": "WMS Logical Memory score corrected for baseline versus placebo", "setting": "[3]; Day 2, one dose, p=0.72", "value": "did not differ significantly"}, {"measurement": "MAS Short Term Memory score, mean", "setting": "[3]; Day 4, after five 15 mg doses", "value": 85.9}, {"measurement": "MAS Verbal Memory score, mean", "setting": "[3]; Day 4, after five 15 mg doses", "value": 75.8}, {"measurement": "MAS Visual Memory score, mean", "setting": "[3]; Day 4, after five 15 mg doses", "value": 85.5}, {"measurement": "MAS Visual Memory score, least-square mean corrected for baseline", "setting": "[3]; Day 4, five 15 mg doses, placebo 78.7", "value": 87.5}, {"measurement": "MAS Visual Memory, mean change from baseline", "setting": "[3]; Day 4, five 15 mg doses, placebo −1.50", "value": 8.54}, {"measurement": "MAS Visual Memory score versus placebo", "setting": "[3]; Day 4, p=0.023", "value": "significantly higher"}, {"measurement": "MAS Verbal Memory versus placebo", "setting": "[3]; Day 4, p=0.31", "value": "not significantly different"}, {"measurement": "MAS Short Term Memory versus placebo", "setting": "[3]; Day 4, p=0.72", "value": "not significantly different"}, {"measurement": "effect on scopolamine-induced memory deficits", "setting": "[4]", "value": "can ameliorate some memory deficits induced by scopolamine"}]}
{"smiles": "NCC(=O)O", "note": "[Glycine]", "values": [{"measurement": "maximum specific [3H]TCP binding", "setting": "[1]; 0.6 μM glycine, basal binding 2583±381 DPM", "value": "4712±779", "unit": "DPM"}]}
